This is an account of results in article PMC8560754, “Bridging the gap between in silico and in vivo by modeling opioid disposition in a kidney proximal tubule microphysiological system” (Scientific Reports, 2021).

SMILES strings stand for the structures. Like-named read-outs stand apart in the source and are kept apart here. Marks after values point to notes of the source that are not given here.

In one series the test system is PTECs monolayers. The experiment in a line: Bidirectional transport across PTECs monolayers in conventional 2D Transwell. It is filed as in vitro ADME, human. Conditions: for CLint, secretion: considered as zero since no active secretion was observed in 2D Transwell; for Papp A→B / Papp B→A: Inhibitor (-), 1.5 hour incubation; for Papp A→B: read-out: Papp Apical to Basal; for Papp B→A: read-out: Papp Basal to Apical. As to the method:
(§1) PTECs were seeded on polyester membrane HTS 24-well Transwell^TM inserts at 0.5-1 ×10^5 cells/well and cultured for 7-10 days until confluency. Transepithelial electrical resistance
(§2) (TEER) across PTECs monolayers was monitored by an EVOM meter from World Precision Instruments (Berlin, Germany). TEER values were normalized to culture surface areas of Transwell^TM inserts. Wells with TEER reading from 25-150 ohm∙cm^2 were used for experiments.
(§3) Samples were collected from basal (for apical to basal transport) or apical (for basal to apical transport) insert and analyzed by LC/MS/MS. Concentrations were used to determine apparent permeability (Papp) by using the following equation: […]

Test in series [1]: as above
Format: in vitro ADME, human. Conditions: human; for Papp at 1.5 h, 1 µM: PTECs permeability study data used for CLr prediction; for Papp A→B at 1.5 h, 1 µM / Papp B→A at 1.5 h, 1 µM: Inhibitor (-), 1.5 hour incubation; for Papp A→B at 1.5 h, 1 µM: read-out: Papp Apical to Basal; for Papp B→A at 1.5 h, 1 µM: read-out: Papp Basal to Apical. As to the method: as §1, §2, §3

For series [2] the following is noted: human, cited from earlier work.
For series [3] the following is noted: ref www.drugbank.ca; cited from earlier work.
For series [4] the following is noted: blood-to-plasma ratio; cited from earlier work.
Series [5] can be described thus: Bidirectional transport across MDCK monolayers in conventional 2D Transwell. It is filed as in vitro ADME. The settings on record: dog, Inhibitor (-), 1.5 hour incubation.
Text: as §3

Series [6] has as its system human primary proximal tubular epithelial cells (PTEC) tubule in VPT-MPS. The experiment in a line: Transport of morphine and M6G in the vascularized proximal tubule MPS (VPT-MPS). It is filed as in vitro ADME. The settings on record: for CLint,sec: VPT-MPS derived intrinsic secretion clearance; for CLsecretion, each proximal subsegment S1, S2, and S3: clearance value of each proximal subsegment; for CLsecretion, each proximal subsegment S1, S2, and S3 / CLsecretion: scaled up from VPT-MPS; for CLsecretion: unbound intrinsic kidney active secretion clearance at proximal tubule, total; for CLapp, passive diffusion / CLapp, active secretion: one representative donor; for CLapp, passive diffusion / Concentration in endothelial cell / Efflux rate into lumen / CLapp, active secretion: mean ± SD; for Concentration in endothelial cell / Efflux rate into lumen: representative donor of Fig 2. As to the method:
(§4) The inner chamber of dual-channel MPS devices (Duplo, Fig. 1) (https://www.nortisbio.com/) was dried, filled with 6 mg/mL of rat tail collagen I, and left overnight to allow the collagen I matrix to solidify. The mandrels of the MPS platforms were then removed, leaving two hollow channels through the collagen I matrix. The PTEC channel was coated with a 5 µg/mL mouse collagen IV to facilitate human PTECs adhesion. Cultures of primary kidney epithelial cells were subjected to trypsin digestion to obtain single cell suspensions. The cells were counted and resuspended with PTECs culture media at a concentration of 20 × 10^6 cells/mL and 2–2.5 µL were injected into the collagen IV-coated channel. Cells were allowed to attach for 3 h before starting perfusion at a rate of 1.0 µL/min. A 1.0 µL/min perfusion of DMEM/F12 media containing ITS-A, 50 nM hydrocortisone, penicillin–streptomycin and amphotericin B was then initiated. Following 6 days under these culture conditions, the epithelial tubule was established and perfusion to the channel was stopped for a brief period. The parallel vacant channel was equilibrated with EGM-2 media containing 2% FBS for 2 h at 1.0 µL/min. Then, HUVECs (passages 5–10) were seeded into the equilibrated channel and allowed to attach for 30 min to establish an endothelial vessel. Flow to both channels was resumed at 1.0 µL/min with both channels receiving their respective culture medium. The day after seeding HUVEC, VPT-MPS were used for transport experiments. Prior to the beginning of experiments, a visual inspection under light microscope was performed to confirm complete (100%) coverage of both HUVEC vessel and PTEC tubule, respectively.
(§5) The flow rate of flow through both channels was set at 1 µL/min. Effluents from the vessel and the tubule were collected every 2 h, and drug concentrations in the samples were determined LC/MS/MS. Transport experiments were conducted across 3 different donors. Effluent measurements were extended out to 24 h in order to reach steady-state levels in solute output.

Test in series [7]: as above
Format: in vitro ADME, human. Conditions: human, with probenecid (1 mM) and tetraethylammonium (1 mM), read-out: Permeability. As to the method:
as §4, §5

For series [8] the following is noted: fraction of morphine metabolism to M6G; cited from earlier work.
Series [9] can be described thus: Morphine-M6G parent-metabolite full body PBPK model. Also on record: species or system human. The settings on record: hepatic clearance; systemic clearance minus renal clearance.

In the case of `CN1CC[C@]23c4c5ccc(O)c4O[C@H]2[C@@H](O[C@@H]2O[C@H](C(=O)O)[C@@H](O)[C@H](O)[C@H]2O)C=C[C@H]3[C@H]1C5` [M6G, morphine-6-glucuronide], the “CLint, secretion” value in the series on PTECs monolayers (Donor2), with PTECs monolayers (Donor3), with PTECs monolayers (Donor5) and in the series with PTECs monolayers (Donor6) was 0 µL/h each time. In addition, the results for the Papp at 1.5 h, 1 µM in [1] (Donor3), in [1] (Donor5) and in series [1] (Donor6) were 40.1 ×10⁻⁶ cm/s, 28.6 ×10⁻⁶ cm/s and 40.1 ×10⁻⁶ cm/s, respectively. Also, the Papp A→B at 1.5 h, 1 µM in [1] (Donor2) came to 58 ×10⁻⁶ cm/s; in [1] (Donor3), 40.1 ± 7.5 ×10⁻⁶ cm/s; in [1] (Donor4) it was 22.5 ×10⁻⁶ cm/s; in [1] (Donor5) it was 28.6 ± 1.6 ×10⁻⁶ cm/s; in series [1] (Donor6), 55.6 ×10⁻⁶ cm/s; in series [5] (read-out: Papp Apical to Basal), 3.86 ×10⁻⁶ cm/s. Moreover, the Papp B→A at 1.5 h, 1 µM in series [1] (Donor2) was 54.6 ×10⁻⁶ cm/s; in series [1] (Donor3), 24.9 ± 14.2 ×10⁻⁶ cm/s; in series [1] (Donor4), 12.2 ×10⁻⁶ cm/s; in [1] (Donor5) it was 28.6 ± 2.1 ×10⁻⁶ cm/s; in series [1] (Donor6), 42.2 ×10⁻⁶ cm/s; in series [5] (read-out: Papp Basal to Apical), 1.53 ± 0.17 ×10⁻⁶ cm/s. Also, the “CLr,observed” value in series [2] is 9.20–14.3[20],[21] L/h; in series [2] (ref 5,6 (supplement)), 9.20-14.3 ^5,6 L/hr. For the same compound, the “pKa (base)” value in series [3] was 9.12^b. In addition, in series [4], the B/P was 0.55^e. The “decrease in intrinsic clearance by transporter inhibitors” value in [6] (1 mM probenecid and 1 mM tetraethylammonium, average of three donors) is reported as 63.6%. Moreover, the “CLint,sec” value in series [6] (Donor1) came out at 15.6 ± 10.5 µL/h/MPS; in [6] (Donor2), 1.29 ± 1.09 µL/h/MPS; in [6] (Donor3), 22.9 µL/h/MPS. For the same compound, in series [6], the “CLsecretion, each proximal subsegment S1, S2, and S3” value was determined as 14.5 L/h. The “CLint, active secretion, range between PTECs donors” value in series [6] (three donors) is given as 1.29–22.9 µL/h/VPT-MPS. For the same compound, in [6], the CLsecretion came out at 43.5 L/h. The “CLapp, passive diffusion” value in [6] (with inhibitor) is given as 1.92±2.02 μL/hr/MPS. The “Concentration in endothelial cell” value was found to be 639 ± 34 nM in [6] (with inhibitor) and 640 ± 58 nM in series [6] (without inhibitor). The “Efflux rate into lumen” value in series [6] (with inhibitor) was determined as 0.0191 ± 0.0192 pmol/min/MPS; in series [6] (without inhibitor), 0.110 ± 0.043 pmol/min/MPS. In addition, the “CLapp, active secretion” value in series [6] (without inhibitor) is recorded as 7.90±3.86 μL/hr/MPS. The Papp at 24 h, 1 µM worked out at 25.9 ± 28.5 ×10⁻⁶ cm/s in series [7] (Donor1, VPT-MPS); 9.74 ± 11.1 ×10⁻⁶ cm/s in series [7] (Donor2, VPT-MPS); 41.8 ×10⁻⁶ cm/s in series [7] (Donor3, VPT-MPS); 23.8 ×10⁻⁶ cm/s in series [7] (PBPK model parameter, experimentally determined using VPT-MPS).

In the case of `Nc1ccc(C(=O)NCC(=O)O)cc1` [[^3H] PAH, para-aminohippuric acid, reference compound], the “active transport in 2D Transwell” value in the series with PTECs monolayers (2D culture, probe substrate of OAT1 and OAT3) was “negligible active transport”. Besides, the Papp A→B in the series with PTECs monolayers (Donor2) is 72.4 ×10⁻⁶ cm/s; with PTECs monolayers (Donor3), 31.7 ×10⁻⁶ cm/s; with PTECs monolayers (Donor6) it was 71.7 ×10⁻⁶ cm/s. The figures for the Papp B→A in the series on PTECs monolayers (Donor2), in the series on PTECs monolayers (Donor3) and with PTECs monolayers (Donor6) were 69.6 ×10⁻⁶ cm/s, 23 ×10⁻⁶ cm/s and 67.3 ×10⁻⁶ cm/s, respectively.

On to `CN1CC[C@]23c4c5ccc(O)c4O[C@H]2[C@@H](O)C=C[C@H]3[C@H]1C5` [Morphine, reference compound], for which the “fm,M6G” value in series [8] is listed as 0.1^k. Further, the B/P in series [4] was 1.08^e. Moreover, the CLh in [9] was 75.3^i L/h. In addition, in series [6], the “CLsecretion, each proximal subsegment S1, S2, and S3” value is on record as 13.1 L/h; the CLsecretion was 39.3 L/h. The “CLapp, passive diffusion” value in [6] (with inhibitor) was 2.09±1.58 μL/hr/MPS. Further, in [6] (without inhibitor), the “CLapp, active secretion” value is recorded as 6.98±3.94 μL/hr/MPS.
